Assay results: PubChem BioAssay (NCI)
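Grown in 96-well plates, cells were treated for 48 hours with each compound at five concentrations. Insufficient inhibition: endpoint recorded as highest concentration tested. GI50 = concentration required for 50% inhibition of growth. Definition used: TGI = concentration required for complete inhibition of growth.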

Columns and labels:
Experiment in all cases: growth of human tumour cells (NCI), 48 h
786-0 renal = test system: 786-0 renal
A498 renal = test system: A498 renal
A549 NSCLC = test system: A549 NSCLC
ACHN renal = test system: ACHN renal
BT-549 breast = test system: BT-549 breast
CAKI-1 renal = test system: CAKI-1 renal
CCRF-CEM leukemia = test system: CCRF-CEM leukemia
COLO 205 colon = test system: COLO 205 colon
DU-145 prostate = test system: DU-145 prostate
EKVX NSCLC = test system: EKVX NSCLC
HCC-2998 colon = test system: HCC-2998 colon
HCT-116 colon = test system: HCT-116 colon
HCT-15 colon = test system: HCT-15 colon
HL-60(TB) leukemia = test system: HL-60(TB) leukemia
HOP-62 NSCLC = test system: HOP-62 NSCLC
HOP-92 NSCLC = test system: HOP-92 NSCLC
HS 578T breast = test system: HS 578T breast
HT29 colon = test system: HT29 colon
IGROV1 ovarian = test system: IGROV1 ovarian
K-562 leukemia = test system: K-562 leukemia
KM12 colon = test system: KM12 colon
LOX IMVI melanoma = test system: LOX IMVI melanoma
M14 melanoma = test system: M14 melanoma
MALME-3M melanoma = test system: MALME-3M melanoma
MCF7 breast = test system: MCF7 breast
MDA-MB-231 breast = test system: MDA-MB-231 breast
MDA-MB-435 = test system: MDA-MB-435
MOLT-4 leukemia = test system: MOLT-4 leukemia
NCI-H226 lung = test system: NCI-H226 lung
NCI-H23 lung = test system: NCI-H23 lung
NCI-H460 lung = test system: NCI-H460 lung
NCI-H522 lung = test system: NCI-H522 lung
NCI/ADR-RES ovarian = test system: NCI/ADR-RES ovarian
OVCAR-3 ovarian = test system: OVCAR-3 ovarian
OVCAR-4 ovarian = test system: OVCAR-4 ovarian
OVCAR-5 ovarian = test system: OVCAR-5 ovarian
OVCAR-8 ovarian = test system: OVCAR-8 ovarian
PC-3 prostate = test system: PC-3 prostate
RPMI-8226 leukemia = test system: RPMI-8226 leukemia
RXF 393 renal = test system: RXF 393 renal
SF-268 CNS = test system: SF-268 CNS
SF-295 CNS = test system: SF-295 CNS
SF-539 CNS = test system: SF-539 CNS
SK-MEL-2 melanoma = test system: SK-MEL-2 melanoma
SK-MEL-28 melanoma = test system: SK-MEL-28 melanoma
SK-MEL-5 melanoma = test system: SK-MEL-5 melanoma
SK-OV-3 ovarian = test system: SK-OV-3 ovarian
SN12C renal = test system: SN12C renal
SNB-19 CNS = test system: SNB-19 CNS
SNB-75 CNS = test system: SNB-75 CNS
SR leukemia = test system: SR leukemia
SW-620 colon = test system: SW-620 colon
T-47D breast = test system: T-47D breast
TK-10 renal = test system: TK-10 renal
U251 CNS = test system: U251 CNS
UACC-257 melanoma = test system: UACC-257 melanoma
UACC-62 melanoma = test system: UACC-62 melanoma
UO-31 renal = test system: UO-31 renal

O=C1CCc2c(Oc3ccc4c(c3)[C@H]3[C@@H](O4)[C@@H]3c3nc4ccc(C(F)(F)F)cc4[nH]3)ccnc2N1 was tested, and the GI50 (786-0 renal) was 6280 nM, the TGI (786-0 renal) was > 100000 nM and the GI50 (A498 renal) was 1120 nM. For the same molecule, the TGI (A498 renal) was 4240 nM, the GI50 (A549 NSCLC) was 2520 nM and the TGI (A549 NSCLC) was > 100000 nM. For the same molecule, the GI50 (ACHN renal) was 711 nM, the TGI (ACHN renal) was > 100000 nM and the GI50 (BT-549 breast) was 3220 nM. For the same molecule, the TGI (BT-549 breast) was > 100000 nM, the GI50 (CAKI-1 renal) was 1470 nM and the TGI (CAKI-1 renal) was > 100000 nM. The GI50 (CCRF-CEM leukemia) was 3540 nM, the TGI (CCRF-CEM leukemia) was > 100000 nM and the GI50 (COLO 205 colon) was 35.9 nM. The TGI (COLO 205 colon) was 8390 nM, the GI50 (DU-145 prostate) was 4120 nM and the TGI (DU-145 prostate) was > 100000 nM. The GI50 (EKVX NSCLC) was 2990 nM, the TGI (EKVX NSCLC) was > 100000 nM and the GI50 (HCC-2998 colon) was 3080 nM. For the same molecule, the TGI (HCC-2998 colon) was > 100000 nM, the GI50 (HCT-116 colon) was 406 nM and the TGI (HCT-116 colon) was > 100000 nM. The GI50 (HCT-15 colon) was 2400 nM, the TGI (HCT-15 colon) was > 100000 nM and the GI50 (HL-60(TB) leukemia) was 237 nM. For the same molecule, the TGI (HL-60(TB) leukemia) was 3140 nM, the GI50 (HOP-62 NSCLC) was 2450 nM and the TGI (HOP-62 NSCLC) was > 100000 nM. The GI50 (HOP-92 NSCLC) was 1180 nM, the TGI (HOP-92 NSCLC) was 5680 nM and the GI50 (HS 578T breast) was 5410 nM. For the same molecule, the TGI (HS 578T breast) was > 100000 nM, the GI50 (HT29 colon) was 30.2 nM and the TGI (HT29 colon) was > 37600 nM. For the same molecule, the GI50 (IGROV1 ovarian) was 1190 nM, the TGI (IGROV1 ovarian) was > 100000 nM and the GI50 (K-562 leukemia) was 38.1 nM. The GI50 (KM12 colon) was 690 nM, the TGI (KM12 colon) was > 100000 nM and the GI50 (LOX IMVI melanoma) was 102 nM. For the same molecule, the TGI (LOX IMVI melanoma) was 4650 nM, the GI50 (M14 melanoma) was 26 nM and the TGI (M14 melanoma) was 2710 nM. For the same molecule, the GI50 (MALME-3M melanoma) was < 13.7 nM, the TGI (MALME-3M melanoma) was 61.3 nM and the GI50 (MCF7 breast) was 2250 nM. For the same molecule, the TGI (MCF7 breast) was > 100000 nM, the GI50 (MDA-MB-231 breast) was 610 nM and the TGI (MDA-MB-231 breast) was 8280 nM. The GI50 (MDA-MB-435) was 68.2 nM, the TGI (MDA-MB-435) was > 100000 nM and the GI50 (MOLT-4 leukemia) was 1660 nM. For the same molecule, the TGI (MOLT-4 leukemia) was > 100000 nM, the GI50 (NCI-H226 lung) was 1100 nM and the TGI (NCI-H226 lung) was > 100000 nM. For the same molecule, the GI50 (NCI-H23 lung) was 1420 nM, the TGI (NCI-H23 lung) was > 100000 nM and the GI50 (NCI-H460 lung) was 2410 nM. The TGI (NCI-H460 lung) was > 100000 nM, the GI50 (NCI-H522 lung) was 903 nM and the TGI (NCI-H522 lung) was > 28100 nM. The GI50 (NCI/ADR-RES ovarian) was 2830 nM, the TGI (NCI/ADR-RES ovarian) was > 100000 nM and the GI50 (OVCAR-3 ovarian) was 4180 nM. The TGI (OVCAR-3 ovarian) was > 100000 nM, the GI50 (OVCAR-4 ovarian) was 2020 nM and the TGI (OVCAR-4 ovarian) was > 100000 nM. The GI50 (OVCAR-5 ovarian) was 1070 nM, the TGI (OVCAR-5 ovarian) was > 100000 nM and the GI50 (OVCAR-8 ovarian) was 3120 nM. For the same molecule, the TGI (OVCAR-8 ovarian) was > 100000 nM, the GI50 (PC-3 prostate) was 3970 nM and the TGI (PC-3 prostate) was > 100000 nM. The GI50 (RPMI-8226 leukemia) was 2560 nM, the TGI (RPMI-8226 leukemia) was > 100000 nM and the GI50 (RXF 393 renal) was 4030 nM. The TGI (RXF 393 renal) was > 100000 nM, the GI50 (SF-268 CNS) was 2730 nM and the TGI (SF-268 CNS) was > 100000 nM. The GI50 (SF-295 CNS) was 3630 nM, the TGI (SF-295 CNS) was > 100000 nM and the GI50 (SF-539 CNS) was 4660 nM. For the same molecule, the TGI (SF-539 CNS) was > 100000 nM, the GI50 (SK-MEL-2 melanoma) was 242 nM and the TGI (SK-MEL-2 melanoma) was 1670 nM. The GI50 (SK-MEL-28 melanoma) was 32.6 nM, the TGI (SK-MEL-28 melanoma) was 3800 nM and the GI50 (SK-MEL-5 melanoma) was 435 nM. For the same molecule, the TGI (SK-MEL-5 melanoma) was 2910 nM, the GI50 (SK-OV-3 ovarian) was 3540 nM and the TGI (SK-OV-3 ovarian) was > 100000 nM. For the same molecule, the GI50 (SN12C renal) was 2210 nM, the TGI (SN12C renal) was > 100000 nM and the GI50 (SNB-19 CNS) was 4520 nM. For the same molecule, the TGI (SNB-19 CNS) was > 100000 nM, the GI50 (SNB-75 CNS) was 4390 nM and the TGI (SNB-75 CNS) was > 100000 nM. For the same molecule, the GI50 (SR leukemia) was 2560 nM, the TGI (SR leukemia) was > 25200 nM and the GI50 (SW-620 colon) was 2430 nM. The TGI (SW-620 colon) was > 100000 nM, the GI50 (T-47D breast) was 1370 nM and the TGI (T-47D breast) was > 27100 nM. For the same molecule, the GI50 (TK-10 renal) was 1610 nM, the TGI (TK-10 renal) was > 30300 nM and the GI50 (U251 CNS) was 3920 nM. For the same molecule, the TGI (U251 CNS) was > 100000 nM, the GI50 (UACC-257 melanoma) was 32.3 nM and the GI50 (UACC-62 melanoma) was 21.5 nM. For the same molecule, the TGI (UACC-62 melanoma) was 1410 nM, the GI50 (UO-31 renal) was 693 nM and the TGI (UO-31 renal) was > 25300 nM.
